Experiment in all cases: MIC, agar dilution
Common to all, as to type: cell-based

For assay [1], the system named is S. aureus UBMS 88-5 (tetM). The following applies: S. aureus UBMS 88-5 (tetM).
Assay [2] relates to S. aureus UBMS 88-4 (Sensitive). Particulars: S. aureus UBMS 88-4 (Sensitive).
The subject of assay [3] is S. aureus UBMS 90-1 (tetM). The following applies: S. aureus UBMS 90-1 (tetM).
Assay [4] relates to S. aureus UBMS 90-2 (tetM). The following applies: S. aureus UBMS 90-2 (tetM).
The test system of assay [5] is S. aureus UBMS 90-3 (Sensitive). Particulars: S. aureus UBMS 90-3 (Sensitive).
Assay [6] has as its system S. aureus UBMS 88-7 (tetK). Particulars: S. aureus UBMS 88-7 (tetK).
The test system of assay [7] is S. aureus IVES 2943 (meth. resistant). Particulars: S. aureus IVES 2943 (meth. resistant).
For assay [8], the system named is S. aureus IVES 1983 (meth. resistant). Particulars: S. aureus IVES 1983 (meth. resistant).
The test system of assay [9] is S. aureus ATCC 29213 (Sensitive). Particulars: S. aureus ATCC 29213 (Sensitive).
In assay [10] the test system is S. aureus Smith (Sensitive). The following applies: S. aureus Smith (Sensitive).
Assay [11] relates to S. haemolyticus AVAH 88-3. Particulars: S. haemolyticus AVAH 88-3.
In a further assay the test system is E. faecalis 12201. Particulars: E. faecalis 12201.
For another assay, the system named is E. faecalis ATCC 29212. The following applies: E. faecalis ATCC 29212.
For the next assay, the system named is E. coli UBMS 88-1 (tetB). The following applies: E. coli UBMS 88-1 (tetB).
Assay [12] deals with E. coli UBMS 88-2 (Sensitive). The following applies: E. coli UBMS 88-2 (Sensitive).
The test system of assay [13] is E. coli UBMS 89-2 (Sensitive). The following applies: E. coli UBMS 89-2 (Sensitive).
The subject of the next assay is E. coli ATCC 25922. The following applies: E. coli ATCC 25922.
The test system of another assay is E. coli UBMS 89-1 (tetM). Particulars: E. coli UBMS 89-1 (tetM).

Molecules are shown by their SMILES. Converted amounts (≈) assume the structure as drawn.

Turning to `Cc1ccccc1C(=O)Nc1cc(N(C)C)c2c(c1O)C(=O)C1=C(O)C3(O)C(=O)C(C(N)=O)=C(O)C(N(C)C)C3CC1C2` (centres unmarked) [R, 7-(Dimethylamino)-9-((2-methylbenzoyl)amino]-6-demethyl-6-deoxytetracycline], the minimum inhibitory concentration (MIC) stood at 4 µg/mL (≈ 6.77 µM) in assay [1]; 2 µg/mL (≈ 3.39 µM) in [2]; 8 µg/mL (≈ 13.5 µM) in [3]; 2 µg/mL (≈ 3.39 µM) in assay [4]; 1 µg/mL (≈ 1.69 µM) in assay [5]; 4 µg/mL (≈ 6.77 µM) in assay [6]. The MIC in assay [7] worked out at 4 µg/mL (≈ 6.77 µM); in assay [8], 8 µg/mL (≈ 13.5 µM); in assay [9], 0.12 µg/mL (≈ 0.203 µM); in assay [10] it was 1 µg/mL (≈ 1.69 µM); in assay [11], 8 µg/mL (≈ 13.5 µM); against E. faecalis 12201, 8 µg/mL (≈ 13.5 µM). Further, the MIC against E. faecalis ATCC 29212 was 2 µg/mL (≈ 3.39 µM); against E. coli UBMS 88-1 (tetB), 2 µg/mL (≈ 3.39 µM); in assay [12], greater than 32 µg/mL; in [13] it was greater than 32 µg/mL; against E. coli ATCC 25922, greater than 32 µg/mL.

Turning to `CN(C)c1cc(NS(=O)(=O)c2ccc([N+](=O)[O-])cc2)c(O)c2c1CC1CC3C(N(C)C)C(O)=C(C(N)=O)C(=O)C3(O)C(O)=C1C2=O` (centres unmarked) [AA, 7-(Dimethylamino)-9-[[(4-nitrophenyl)sulfonyl]amino]-6-demethyl-6-deoxytetracycline], the MIC in [1] turned out to be 0.12 µg/mL (≈ 0.182 µM); in assay [2], 0.12 µg/mL (≈ 0.182 µM); in [3], 0.5 µg/mL (≈ 0.76 µM); in assay [4] it was 0.12 µg/mL (≈ 0.182 µM); in assay [5], 0.06 µg/mL (≈ 0.0912 µM); in assay [6] it was 2 µg/mL (≈ 3.04 µM). The MIC came out at 4 µg/mL (≈ 6.08 µM) in assay [7]; 8 µg/mL (≈ 12.2 µM) in assay [8]; 0.12 µg/mL (≈ 0.182 µM) in assay [9]; 0.12 µg/mL (≈ 0.182 µM) in [10]; 2 µg/mL (≈ 3.04 µM) in [11]; 0.12 µg/mL (≈ 0.182 µM) with E. faecalis ATCC 29212. The MIC against E. coli UBMS 88-1 (tetB) is 16 µg/mL (≈ 24.3 µM); in [12], 8 µg/mL (≈ 12.2 µM); against E. coli UBMS 89-1 (tetM), 4 µg/mL (≈ 6.08 µM); in [13], 16 µg/mL (≈ 24.3 µM); against E. coli ATCC 25922, 4 µg/mL (≈ 6.08 µM).

Regarding `CCN(CC)c1cc(NC=O)c(O)c2c1C[C@H]1C[C@H]3[C@H](N(C)C)C(O)=C(C(N)=O)C(=O)[C@@]3(O)C(O)=C1C2=O.O=S(=O)(O)O.O=S(=O)(O)O` [D, 7-(Diethylamino)-9-(formylamino)-6-demethyl-6-deoxytetracycline disulfate], the MIC in assay [1] was determined as 0.25 µg/mL; in assay [2] it was 0.12 µg/mL; in assay [3] it was 0.5 µg/mL; in assay [4], 0.12 µg/mL; in [5], 0.06 µg/mL; in assay [6], 2 µg/mL. Further, the MIC is 4 µg/mL in assay [7]; 4 µg/mL in [8]; “≦0.015 μg/ml” in assay [9]; 0.03 µg/mL in [10]; 1 µg/mL against E. faecalis 12201; 0.12 µg/mL in the assay on E. faecalis ATCC 29212. Moreover, the MIC in the assay on E. coli UBMS 88-1 (tetB) was greater than 32 µg/mL; in assay [12], 0.5 µg/mL; in assay [13], 0.5 µg/mL; with E. coli ATCC 25922, 0.5 µg/mL.

On to `CN(C)c1cc(NC(=O)c2c(F)c(F)c(F)c(F)c2F)c(O)c2c1CC1CC3C(N(C)C)C(O)=C(C(N)=O)C(=O)C3(O)C(O)=C1C2=O` (centres unmarked) [T, 7-(Dimethylamino)-9-((pentafluorobenzoyl)amino]-6-demethyl-6-deoxytetracycline], for which the MIC in assay [1] turned out to be 4 µg/mL (≈ 6 µM); in [2], 4 µg/mL (≈ 6 µM); in assay [3] it was 4 µg/mL (≈ 6 µM); in assay [4], 2 µg/mL (≈ 3 µM); in assay [5], 2 µg/mL (≈ 3 µM); in assay [6], 4 µg/mL (≈ 6 µM). For the same compound, the MIC in assay [7] was 4 µg/mL (≈ 6 µM); in [8], 4 µg/mL (≈ 6 µM); in assay [9] it was 1 µg/mL (≈ 1.5 µM); in [10], 4 µg/mL (≈ 6 µM); in assay [11], 4 µg/mL (≈ 6 µM); against E. faecalis 12201, 4 µg/mL (≈ 6 µM). Besides, the MIC in the assay with E. faecalis ATCC 29212 was 4 µg/mL (≈ 6 µM); against E. coli UBMS 88-1 (tetB), greater than 32 µg/mL; in assay [12] it was greater than 32 µg/mL; in [13], greater than 32 µg/mL; against E. coli ATCC 25922 it was greater than 32 µg/mL.

On to `COc1ccc(C(=O)Nc2cc(N(C)C)c3c(c2O)C(=O)C2=C(O)C4(O)C(=O)C(C(N)=O)=C(O)C(N(C)C)C4CC2C3)cc1` (centres unmarked) [Q, 7-(Dimethylamino)-9-[(4-methoxybenzoyl)amino)-6-demethyl-6-deoxytetracycline], for which the MIC amounted to 8 µg/mL (≈ 13.2 µM) in [1]; 8 µg/mL (≈ 13.2 µM) in assay [2]; 8 µg/mL (≈ 13.2 µM) in [3]; 8 µg/mL (≈ 13.2 µM) in assay [4]; 4 µg/mL (≈ 6.59 µM) in assay [5]; 16 µg/mL (≈ 26.4 µM) in [6]. For the same compound, the MIC amounted to 8 µg/mL (≈ 13.2 µM) in [7]; 16 µg/mL (≈ 26.4 µM) in [8]; 1 µg/mL (≈ 1.65 µM) in [9]; 4 µg/mL (≈ 6.59 µM) in [10]; 8 µg/mL (≈ 13.2 µM) in [11]; 8 µg/mL (≈ 13.2 µM) against E. faecalis 12201. Besides, the MIC against E. faecalis ATCC 29212 was 8 µg/mL (≈ 13.2 µM); in the assay with E. coli UBMS 88-1 (tetB), greater than 32 µg/mL; in [12], greater than 32 µg/mL; in assay [13], greater than 32 µg/mL; with E. coli ATCC 25922 it was greater than 32 µg/mL.

On to `CC(=O)Nc1nc(C)c(S(=O)(=O)Nc2cc(N(C)C)c3c(c2O)C(=O)C2=C(O)C4(O)C(=O)C(C(N)=O)=C(O)C(N(C)C)C4CC2C3)s1` (centres unmarked) [GG, 9-[[[(2-Acetylamino)-4-methyl-5-thiazolyl]sulfonyl]amino]-7-(dimethylamino)-6-demethyl-6-deoxytetracycline], for which the MIC in [1] stood at 16 µg/mL (≈ 23.2 µM); in assay [2], 4 µg/mL (≈ 5.79 µM); in assay [3], 32 µg/mL (≈ 46.3 µM); in assay [4], 4 µg/mL (≈ 5.79 µM); in assay [5], 2 µg/mL (≈ 2.9 µM); in assay [6] it was 32 µg/mL (≈ 46.3 µM). In addition, the MIC in assay [7] is greater than 32 µg/mL; in assay [8], 32 µg/mL (≈ 46.3 µM); in [9], 0.5 µg/mL (≈ 0.724 µM); in assay [10] it was 2 µg/mL (≈ 2.9 µM); in the assay on E. faecalis ATCC 29212, 1 µg/mL (≈ 1.45 µM); against E. coli UBMS 88-1 (tetB), greater than 32 µg/mL. Moreover, the MIC is greater than 32 µg/mL in assay [12], 32 µg/mL (≈ 46.3 µM) against E. coli UBMS 89-1 (tetM), greater than 32 µg/mL in assay [13] and greater than 32 µg/mL against E. coli ATCC 25922.

Take `CN(C)c1cc(NC(=O)c2ccccc2F)c(O)c2c1CC1CC3C(N(C)C)C(O)=C(C(N)=O)C(=O)C3(O)C(O)=C1C2=O` (centres unmarked) [S, 7-(Dimethylamino)-9-[(2-fluorobenzoyl)amino]-6-demethyl-6-deoxytetracycline]: the MIC was found to be 2 µg/mL (≈ 3.36 µM) in assay [1]; 2 µg/mL (≈ 3.36 µM) in [2]; 4 µg/mL (≈ 6.73 µM) in [3]; 1 µg/mL (≈ 1.68 µM) in assay [4]; 1 µg/mL (≈ 1.68 µM) in assay [5]; 8 µg/mL (≈ 13.5 µM) in assay [6]. Moreover, the MIC in [7] was found to be 8 µg/mL (≈ 13.5 µM); in assay [8] it was 4 µg/mL (≈ 6.73 µM); in assay [9] it was 0.5 µg/mL (≈ 0.841 µM); in [10] it was 1 µg/mL (≈ 1.68 µM); in assay [11] it was 4 µg/mL (≈ 6.73 µM); with E. faecalis 12201 it was 4 µg/mL (≈ 6.73 µM). Also, the MIC is 4 µg/mL (≈ 6.73 µM) against E. faecalis ATCC 29212; greater than 32 µg/mL with E. coli UBMS 88-1 (tetB); greater than 32 µg/mL in assay [12]; greater than 32 µg/mL in assay [13]; greater than 32 µg/mL with E. coli ATCC 25922.

In the case of `CN(C)c1cc(NC(=O)c2ccccc2)c(O)c2c1CC1CC3C(N(C)C)C(O)=C(C(N)=O)C(=O)C3(O)C(O)=C1C2=O` (centres unmarked) [P, 9-(Benzoylamino)-7-(dimethylamino)-6-demethyl-6-deoxytetracycline], the MIC was determined as 4 µg/mL (≈ 6.94 µM) in assay [1]; 4 µg/mL (≈ 6.94 µM) in assay [2]; 4 µg/mL (≈ 6.94 µM) in [3]; 4 µg/mL (≈ 6.94 µM) in [4]; 1 µg/mL (≈ 1.73 µM) in [5]; 8 µg/mL (≈ 13.9 µM) in assay [6]. In addition, the MIC was determined as 16 µg/mL (≈ 27.7 µM) in assay [7]; 8 µg/mL (≈ 13.9 µM) in assay [8]; 0.25 µg/mL (≈ 0.434 µM) in [9]; 1 µg/mL (≈ 1.73 µM) in [10]; 4 µg/mL (≈ 6.94 µM) in assay [11]; 8 µg/mL (≈ 13.9 µM) in the assay with E. faecalis 12201. The MIC was 4 µg/mL (≈ 6.94 µM) in the assay with E. faecalis ATCC 29212; greater than 32 µg/mL in the assay with E. coli UBMS 88-1 (tetB); greater than 32 µg/mL in assay [12]; greater than 32 µg/mL in assay [13]; greater than 32 µg/mL against E. coli ATCC 25922.

The record behind these values is patent publication USRE40086E1, “Method for treating bacterial infection with novel 7-substituted-9-substituted amino 6-demethyl-6-deoxytetracyclines” (Wyeth Holdings Corporation, priority 1991, dated 2008).
